Measured values from patent publication US11124509B2, “Tri-substituted imidazoles for the inhibition of TGF beta and methods of treatment” (CLAVIUS PHARMACEUTICALS, LLC, priority 2017, dated 2021).
Where a name gives a salt, the structure may show the parent alone. Read-outs that look alike come from different tables or passages of the source.

Assays:
TGFBR1 (ALK5) = TGFBR1 (ALK5) (Homo sapiens (Human), UniProt P36897); assay: LanthaScreen Eu Kinase Binding Assay TGFBR1 (ALK5) (ThermoFisher SelectScreen); conditions: read-out: TβRI (ALK5) Binding IC50
Chain of TGFBR1 (ALK5) (P36897 34-503): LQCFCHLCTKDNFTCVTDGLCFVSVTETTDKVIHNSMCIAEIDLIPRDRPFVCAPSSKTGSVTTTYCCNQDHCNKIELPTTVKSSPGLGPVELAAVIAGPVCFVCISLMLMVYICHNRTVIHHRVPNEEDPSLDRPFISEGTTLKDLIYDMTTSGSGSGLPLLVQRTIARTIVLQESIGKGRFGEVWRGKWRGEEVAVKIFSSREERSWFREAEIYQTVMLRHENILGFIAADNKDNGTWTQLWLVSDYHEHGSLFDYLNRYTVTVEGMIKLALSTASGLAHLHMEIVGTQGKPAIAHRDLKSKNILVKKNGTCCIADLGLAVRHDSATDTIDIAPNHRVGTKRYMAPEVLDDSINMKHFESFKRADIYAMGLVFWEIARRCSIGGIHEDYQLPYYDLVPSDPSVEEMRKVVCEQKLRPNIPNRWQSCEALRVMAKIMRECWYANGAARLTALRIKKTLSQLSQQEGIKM
Procedure: (§1) Exemplified compounds were confirmed to inhibit ALK5 activity in enzyme and cellular assays in the following assay systems conducted by ThermoFisher in Madison, Wis. according to their commercially available protocols.
ThermoFisher SelectScreen™ Biochemical Kinase Profiling Service, LanthaScreen™Eu Kinase Binding Assay TGFBR1 (ALK5)
Exemplified compounds were screened in 1% DMSO (final concentration) by 3-fold serial dilutions from 10,000 nM to 0.316 nM to produce an IC50 or at single concentrations of 10,000, 1000 and 100 nM according to the following protocol. To low volume, white 384-well plates (Greiner Cat #784207) add 160 nL 100× compound in 100% DMSO, 3.84 uL kinase buffer (50 mM HEPES, pH 7.5, 0.01% BRIJ-35, 10 mM MgCl2, 1 mM EGTA), 8 uL 2× kinase/antibody mixture in kinase buffer (final ALK5 concentration of 5 nM; final Eu-anti-GST antibody concentration of 2 nM), 4 uL 4× Tracer #178 in kinase buffer (final concentration of 5 nM). Gently shake the plates for 30 seconds and incubate at room temperature for 1 hour before reading fluorescence on a plate reader. Percent inhibition was determined compared to DMSO only control (maximal ALK5 tracer binding) and sigmoidal dose response curve fit yielded IC50 values as indicated in Table 2.

[1] = system: TGF-beta 1 stimulated SBE-b1a HEK 293T cells; assay: GeneBLAzer beta-lactamase reporter, TGF-beta 1 stimulated SBE-b1a HEK 293T cell-based assay (ThermoFisher SelectScreen); conditions: TGF-beta 1 0.03 nM, 5 hours, inhibitor 10,000 nM to 0.316 nM, sigmoidal dose response curve fit, read-out: Cells (SBE_HEK293T) IC50
Procedure: as §1
ThermoFisher SelectScreen™ Cell-Based Pathway Profiling Service GeneBLAzer Beta-Lactamase (b1a) Reporter Technology—TGF-Beta 1 Stimulated SBE-b1a HEK 293T Cell-Based Assay
SBE-b1a HEK 293T cells were thawed and re-suspended in Assay Media (OPTI-MEM, 0.5% dialyzed FBS, 0.1 mM NEAA, 1 mM Sodium Pyruvate, 100 U/mL/100 μg/mL Pen/Strep) to a concentration of 625,000 cells/mL. 32 μL of cell suspension (20,000 cells) was added to each well of a 384-well Poly-D-Lysine assay plate. Cells in Assay Media were incubated for 16-24 hours in the plate at 37° C./5% CO2 in a humidified incubator. 4 μL of a 10× serial dilution of ALK5 inhibitors (10x=100,000-3.16 nM) was added to appropriate wells of the plate and pre-incubated at 37° C./5% CO2 in a humidified incubator with cells for 30 minutes. Final concentration of inhibitor ranged from 10,000 nM to 0.316 nM. 4 μL of 10× TGF-beta 1 (final concentration of 0.03 nM) was added to wells containing the inhibitors. The plate was incubated for 5 hours at 37° C./5% CO2 in a humidified incubator. 8 μL of 1 μM Substrate Loading Solution was added to each well and the plate was incubated for 2 hours at room temperature before being read on a fluorescence plate reader. Percent inhibition was determined compared to DMSO only control (maximal TGF-beta 1 stimulation) and sigmoidal dose response curve fit yielded IC50 values as indicated in Table 2.

[2] = 3-fold serial dilutions 10,000 nM to 0.316 nM, ALK5 5 nM, Tracer #178 5 nM, sigmoidal dose response curve fit
[3] = compounds marked with an asterisk: evaluated at three concentrations, IC50 depicted as less than the lowest concentration producing >50% inhibition

| Compound | IC50 (TGFBR1 (ALK5); [2]) | IC50 ([1]; Homo sapiens, HEK-293T) | IC50 (TGFBR1 (ALK5); [3]) | IC50 [1] |
| --- | --- | --- | --- | --- |
| Cn1ccc(-c2nc(CNc3ccccc3F)[nH]c2-c2ccc3ncnn3c2)n1 [Compound 2, N-((5-([1,2,4]triazolo[1,5-a]pyridin-6-yl)-4-(1-methyl-1H-pyrazol-3-yl)-1H-imidazol-2-yl)methyl)-2-fluoroaniline hydrochloride] | 1370 nM | > 10000 nM | – | – |
| Cn1ccc(-c2nc(CNc3ccccc3)[nH]c2-c2ccc3ncnn3c2)n1 [Compound 4, N-((5-([1,2,4]triazolo[1,5-a]pyridin-6-yl)-4-(1-methyl-1H-pyrazol-3-yl)-1H-imidazol-2-yl)methyl)aniline hydrochloride] | 1370 nM | > 10000 nM | – | – |
| Cn1ccc(-c2nc(CNc3cccc(F)c3)[nH]c2-c2ccc3ncnn3c2)n1 [Compound 6, N-((5-([1,2,4]triazolo[1,5-a]pyridin-6-yl)-4-(1-methyl-1H-pyrazol-3-yl)-1H-imidazol-2-yl)methyl)-3-fluoroaniline hydrochloride] | 354 nM | 3870 nM | – | – |
| Cn1ccc(-c2nc(CNc3ccc(F)cc3)[nH]c2-c2ccc3ncnn3c2)n1 [Compound 8, N-((5-([1,2,4]triazolo[1,5-a]pyridin-6-yl)-4-(1-methyl-1H-pyrazol-3-yl)-1H-imidazol-2-yl)methyl)-4-fluoroaniline hydrochloride] | 811 nM | > 10000 nM | – | – |
| CC(C)n1ccc(-c2nc(CNc3ccccc3)[nH]c2-c2ccc3ncnn3c2)n1 [Compound 10, N-((5-([1,2,4]triazolo[1,5-a]pyridin-6-yl)-4-(1-isopropyl-1H-pyrazol-3-yl)-1H-imidazol-2-yl)methyl)aniline hydrochloride] | 264 nM | 2660 nM | – | – |
| Cn1ccc(-c2nc(CNc3ccc(Cl)cc3)[nH]c2-c2ccc3ncnn3c2)n1 [Compound 12, N-((5-([1,2,4]triazolo[1,5-a]pyridin-6-yl)-4-(1-methyl-1H-pyrazol-3-yl)-1H-imidazol-2-yl)methyl)-4-chloroaniline hydrochloride] | – | > 10000 nM | – | – |
| Cn1ccc(-c2nc(CNc3cccc(C#N)c3)[nH]c2-c2ccc3ncnn3c2)n1 [Compound 16, 3-(((5-([1,2,4]triazolo[1,5-a]pyridin-6-yl)-4-(1-methyl-1H-pyrazol-3-yl)-1H-imidazol-2-yl)methyl)amino)benzonitrile hydrochloride] | – | 3570 nM | < 1000 nM | – |
| CC(C)n1ccc(-c2nc(CNc3cccc(F)c3)[nH]c2-c2ccc3ncnn3c2)n1 [Compound 20, N-((5-([1,2,4]triazolo[1,5-a]pyridin-6-yl)-4-(1-isopropyl-1H-pyrazol-3-yl)-1H-imidazol-2-yl)methyl)-3-fluoroaniline hydrochloride] | – | 1270 nM | < 100 nM | – |
| CC(C)n1ccc(-c2nc(CNc3cccc(F)c3)[nH]c2-c2ccc3nccnc3c2)n1 [Compound 22, 3-fluoro-N-((4-(1-isopropyl-1H-pyrazol-3-yl)-5-(quinoxalin-6-yl)-1H-imidazol-2-yl)methyl)aniline hydrochloride] | – | 1090 nM | < 100 nM | – |
| Cn1ccc(-c2nc(CNc3cccc(F)c3)[nH]c2-c2ccc3ncccc3c2)n1 [Compound 24] | – | 1930 nM | < 200 nM | – |
| CC(C)n1ccc(-c2nc(CNc3cccc(F)c3)[nH]c2-c2ccc3ncccc3c2)n1 [Compound 26, 3-fluoro-N-((4-(1-isopropyl-1H-pyrazol-3-yl)-5-(quinolin-6-yl)-1H-imidazol-2-yl)methyl)aniline hydrochloride] | – | – | < 100 nM | – |
| CC(C)n1ccc(-c2nc(CNc3cccc(F)c3)[nH]c2-c2ccc3ncc(C#N)n3n2)n1 [Compound 27] | – | – | < 100 nM | – |
| CC(C)n1ccc(-c2nc(CNc3cccc(C#N)c3)[nH]c2-c2ccc3ncnn3c2)n1 [Compound 28] | – | 757 nM | < 100 nM | – |
| CC(C)n1ccc(-c2nc(CNc3cccc(C(N)=O)c3)[nH]c2-c2ccc3ncnn3c2)n1 [Compound 29, 3-(((5-([1,2,4]triazolo[1,5-a]pyridin-6-yl)-4-(1-isopropyl-1H-pyrazol-3-yl)-1H-imidazol-2-yl)methyl)amino)benzamide] | – | 4620 nM | < 100 nM | – |
| Cn1ccc(-c2nc(CNc3ccccc3F)[nH]c2-c2ccc3ncccc3c2)n1 [Compound 31, 2-fluoro-N-((4-(1-methyl-1H-pyrazol-3-yl)-5-(quinolin-6-yl)-1H-imidazol-2-yl)methyl)aniline hydrochloride] | – | 8930 nM | < 1000 nM | – |
| CC(C)n1ccc(-c2nc(CNc3ccccc3F)[nH]c2-c2ccc3ncccc3c2)n1 [Compound 33, 2-fluoro-N-((4-(1-isopropyl-1H-pyrazol-3-yl)-5-(quinolin-6-yl)-1H-imidazol-2-yl)methyl)aniline hydrochloride] | – | 9120 nM | < 200 nM | – |
| CC(C)n1ccc(-c2nc(CNc3cccc(F)c3)[nH]c2-c2ccc3ncc(C(N)=O)n3n2)n1 [Compound 34] | 49 nM | 379 nM | – | – |

| Compound | IC50 (TGFBR1 (ALK5); [2]) | IC50 ([1]; Homo sapiens, HEK-293T) | IC50 (TGFBR1 (ALK5); [3]) | IC50 [1] |
| --- | --- | --- | --- | --- |
| CC(C)n1ccc(-c2nc(CNc3cc(F)cc(F)c3)[nH]c2-c2ccc3ncnn3c2)n1 [Compound 36, N-((5-([1,2,4]triazolo[1,5-a]pyridin-6-yl)-4-(1-isopropyl-1H-pyrazol-3-yl)-1H-imidazol-2-yl)methyl)-3,5-difluoroaniline hydrochloride] | 103 nM | 507 nM | – | – |
| Cn1ccc(-c2nc(-c3ccc(C(N)=O)cc3)[nH]c2-c2ccc3ncsc3c2)n1 [Compound 37] | 5.6 nM | 53.2 nM | – | – |
| CC(C)n1ccc(-c2nc(CNc3cccc(C#N)c3)[nH]c2-c2ccc3ncc(C(N)=O)n3n2)n1 [Compound 38] | – | 3180 nM | < 100 nM | – |
| CC(C)n1ccc(-c2nc(CNc3cc(F)cc(F)c3)[nH]c2-c2ccc3nccnc3c2)n1 [Compound 39] | – | 53.6 nM | – | – |
| CC(C)n1ccc(-c2nc(CNc3cccc(-n4cccn4)c3)[nH]c2-c2ccc3nccnc3c2)n1 [Compound 40] | – | 1050 nM | < 100 nM | – |
| CC(C)n1ccc(-c2nc(CNc3cccc(C#N)c3)[nH]c2-c2ccc3nccnc3c2)n1 [Compound 41] | 33 nM | 77.5 nM | – | – |
| Cn1ccc(-c2nc(-c3ccc(C#N)cc3)[nH]c2-c2ccc3nccnc3c2)n1 [Compound 42] | – | – | < 1000 nM | – |
| CC(C)n1ccc(-c2nc(CNc3ccc(F)c(F)c3)[nH]c2-c2ccc3nccnc3c2)n1 [Compound 48] | – | – | < 100 nM | – |
| CC(C)n1ccc(-c2nc(CNc3ccc(Cl)c(F)c3)[nH]c2-c2ccc3nccnc3c2)n1 [Compound 49] | – | – | < 1000 nM | – |
| CC(C)n1ccc(-c2nc(CNc3cc(F)cc(C#N)c3)[nH]c2-c2ccc3nccnc3c2)n1 [Compound 50] | – | 1070 nM | – | – |
| CC(C)n1ccc(-c2nc(CNc3ccc(Cl)c(Cl)c3)[nH]c2-c2ccc3nccnc3c2)n1 [Compound 51] | 260 nM | – | – | – |
| CC(C)n1ccc(-c2nc[nH]c2-c2ccc3nccnc3c2)n1 [Compound 53, 6-(4-(1-isopropyl-1H-pyrazol-3-yl)-1H-imidazol-5-yl)quinoxaline hydrochloride] | – | – | < 1000 nM | – |
| CC(C)n1ccc(-c2nc(-c3ccc(C(N)=O)cc3)[nH]c2-c2ccc3nccnc3c2)n1 [Compound 59] | 889 nM | – | – | – |
| N#Cc1ccc(-c2nc(-c3ccn(C(F)F)n3)c(-c3ccc4ncsc4c3)[nH]2)cc1 [Compound 60] | 71.7 nM | – | – | – |
| Cn1ccc(-c2nc(-c3ccc(C(N)=O)cc3)[nH]c2-c2ccc3c(c2)OCO3)n1 [Compound 67] | 50 nM | – | – | – |
| Fc1cc(F)cc(NCc2nc(-c3ccn(C4CC4)n3)c(-c3ccc4ncnn4c3)[nH]2)c1 [Compound 69] | 3 nM | – | – | – |
| N-((5-([1,2,4]triazolo[1,5-a]pyridin-6-yl)-4-(1-methyl-1H-pyrazol-3-yl)-1H-imidazol-2-yl)methyl)-4-chloroaniline hydrochloride [Compound 14] | – | – | – | > 10000 nM |
